ChEMBL document CHEMBL1667805, “Synthesis of new C5-(1-substituted-1,2,3-triazol-4 or 5-yl)-2'-deoxyuridines and their antiviral evaluation” (Eur J Med Chem, 2011)
The source made the active and inactive calls. No cut-off for these calls is given here.

Experiments:
[1] = system: Mammalian orthoreovirus 1; format: functional, organism-based; details: Vero
[2] = system: Sindbis virus; format: functional, organism-based; details: Vero
[3] = system: Punta Toro virus; format: functional, organism-based; details: Vero
[4] = system: Coxsackievirus B4; format: functional, organism-based; details: HeLa
[5] = system: Vesicular stomatitis virus; format: functional, organism-based; details: HeLa
[6] = system: Human immunodeficiency virus 1; assay: Antiviral activity against HIV1 3B infected in human […] cells assessed as virus-induced CEM giant cell formation after 4 days; format: functional, organism-based
[7] = system: Human immunodeficiency virus 2; assay: Antiviral activity against HIV2 ROD infected in human […] cells assessed as virus-induced CEM giant cell formation after 4 days; format: functional, organism-based; details: ISOLATE ROD
[8] = system: Vesicular stomatitis virus; format: functional, organism-based; details: MDCK
[9] = system: Influenza A virus; format: functional, organism-based; details: H1N1, MDCK
[10] = system: Influenza A virus; format: functional, organism-based; details: H3N2, MDCK
[11] = system: Influenza B virus; format: functional, organism-based; details: MDCK
[12] = system: Human respirovirus 3; format: functional, organism-based; details: Vero
[13] = system: L1210; assay: cells; details: Mus musculus, L1210, 48 h
[14] = system: CCRF-CEM; assay: cells; details: Homo sapiens, 72 h
[15] = system: HeLa; assay: cells; details: Homo sapiens, 96 h
[16] = in vitro; details: human, HEL cells
[17] = system: Human alphaherpesvirus 1; assay: microbe, parasite or virus in culture; details: Human alphaherpesvirus 1, KOS, HEL
[18] = system: Human alphaherpesvirus 1; assay: microbe, parasite or virus in culture; details: Human alphaherpesvirus 1, KOS, HEL; remark: listed apart in the source
[19] = system: Human alphaherpesvirus 2; assay: microbe, parasite or virus in culture; details: Human alphaherpesvirus 2, strain G, HEL
[20] = system: Human alphaherpesvirus 3; assay: microbe, parasite or virus in culture; details: Human alphaherpesvirus 3, strain Oka vaccine, HEL
[21] = system: Human alphaherpesvirus 3; assay: microbe, parasite or virus in culture; details: Human alphaherpesvirus 3, 07-1, HEL
[22] = system: Human betaherpesvirus 5; assay: microbe, parasite or virus in culture; details: Human betaherpesvirus 5, AD169, HEL
[23] = system: Human betaherpesvirus 5; assay: microbe, parasite or virus in culture; details: Human betaherpesvirus 5, Davis, HEL
[24] = system: Vaccinia virus; assay: microbe, parasite or virus in culture; details: Orthopoxvirus vaccinia, HEL

SMILES | inhibition [1] | inhibition [2] | inhibition [3] | inhibition [4] | inhibition [5] | inhibition [6] | inhibition [7] | inhibition [8] | inhibition [9] | inhibition [10] | inhibition [11] | inhibition [12] | IC50 [13] | IC50 [14] | IC50 [15] | CC50 at 72 h [16] | MCC at 72 h [16] | EC50 [17] | EC50 [18] | EC50 [19] | other results
CC(C)(C)c1ccc(-n2cc(-c3cn([C@H]4C[C@H](O)[C@@H](CO)O4)c(=O)[nH]c3=O)nn2)cc1 | inactive | inactive | inactive | inactive | inactive | inactive | inactive | inactive | inactive | inactive | inactive | inactive | 15 µM | 11 µM | 9 µM | 12.4 µM | 230 µM | > 50 µM | > 50 µM | > 50 µM | EC50 [20]: 7.7 µM; EC50 [21]: 35 µM; EC50 [22]: > 50 µM; EC50 [23]: > 50 µM; EC50 [24]: 37 µM
O=c1[nH]c(=O)n([C@H]2C[C@H](O)[C@@H](CO)O2)cc1-c1cn(-c2ccc(Oc3ccccc3)cc2)nn1 | inactive | inactive | inactive | inactive | inactive | inactive | inactive | inactive | inactive | inactive | inactive | inactive | 0.5 µM | 0.8 µM | 0.28 µM | 0.45 µM | 130 µM | 31 µM | 8.6 µM | ≥ 43 µM | EC50 [20]: 1.4 µM; EC50 [21]: 5.7 µM; EC50 [22]: 19.4 µM; EC50 [23]: 16.4 µM; EC50 [24]: 4.3 µM
CSc1ccc(-n2cc(-c3cn([C@H]4C[C@H](O)[C@@H](CO)O4)c(=O)[nH]c3=O)nn2)cc1 | inactive | inactive | inactive | inactive | inactive | inactive | inactive | inactive | inactive | inactive | inactive | inactive | 62 µM | 50 µM | 23 µM | 27 µM | > 230 µM | > 50 µM | > 50 µM | > 50 µM | EC50 [20]: 27 µM; EC50 [21]: > 50 µM; EC50 [22]: > 50 µM; EC50 [23]: > 50 µM; EC50 [24]: > 50 µM
O=c1[nH]c(=O)n([C@H]2C[C@H](O)[C@@H](CO)O2)cc1-c1cn(-c2ccc(Cl)cc2)nn1 | inactive | inactive | inactive | inactive | inactive | inactive | inactive | inactive | inactive | inactive | inactive | inactive | 14.8 µM | 13 µM | 4 µM | 7.4 µM | > 240 µM | > 240 µM | > 240 µM | > 240 µM | EC50 [20]: 41 µM; EC50 [21]: 48 µM; EC50 [22]: > 240 µM; EC50 [23]: > 131 µM; EC50 [24]: > 240 µM
CCCCc1ccc(-n2cc(-c3cn([C@H]4C[C@H](O)[C@@H](CO)O4)c(=O)[nH]c3=O)nn2)cc1 | inactive | inactive | inactive | inactive | inactive | inactive | inactive | inactive | inactive | inactive | inactive | inactive | 15 µM | 60 µM | 23 µM | 147 µM | 230 µM | > 50 µM | > 50 µM | > 50 µM | EC50 [20]: > 50 µM; EC50 [21]: > 50 µM; EC50 [22]: > 50 µM; EC50 [23]: > 50 µM; EC50 [24]: > 50 µM
